# Results as given in patent US20030148963A1 (priority 2000, published 2003).
# Marks after values point to notes of the source that are not given here.
# How the values were obtained:
# [1] = tested on: granulocyte mediated inflammatory response; assay: Olive oil induced inflammation (foot-pad swelling); format: in vivo; conditions: non-infected mice, n=6, 24 h after injection; no difference to controls
# Experimental: Olive oil induces in vivo a strong granulocyte mediated but T cell independent inflammatory response. Inflammation was induced by injection of 30 μl olive oil (Apoteksbolaget AB, Göteborg, Sweden) intradermally in hind foot-pad. […] Foot-pad swelling was registered 24 h after injection using an Oditest spring caliper. The intensity of the olive oil induced inflammation was expressed (foot-pad thickness^24 h−foot-pad thickness^0 h)×10^−3 cm.
# RANTES = RANTES release by IC-21 macrophage cell line; format: cell-based, murine; conditions: data not shown
# Experimental: (§1) Levels of TNF, IL-1b, RANTES, and macrophage inflammatory protein (MIP)-1α were determined using sandwich ELISA from R&D Systems (Minneapolis, Minn.).
# (§2) These cells display many typical features of the macrophage phenotype and are therefore a suitable model for studying cytoline and chemokine release during inflammation (16). The cells were maintained in continous culture using RPMI-1640 supplemented with 10% FCS, L-glutamine, and gentamycin. When the cells had grown to about 70% confluency, they were seeded into a 24-well-plate (Nunc) at a concentration of 1×10^5 per well and incubated at 37° C. in 5% CO2 for 24 h. […] After 24 h of incubation, the cells were washed once with PBS, and reincubated with medium containing different concentrations (1, 10, 100, 1000 ng/ml) of LPS (Difco) and IFN-γ (10, 50, 100 u/nml). The interferon-γ was purified from the supernatants from Chinese hanater ovary (CHO) cells transfected with the murine IFN-γ gene (hybridoma kindly provided by Dr. Morris, Department of Biological Sciences, University of Warwick, Coventry, UK). After 2 and 24 h of incubation the supernatants were collected and stored at −20° C. until analysis.
# [2] = tested on: collagen induced arthritis (CIA); assay: Collagen induced arthritis, clinical evaluation; format: in vivo, B10.QxDBA/1 female mice
# Experimental: B10.QxDBA/1 female mice were used in all experiments. They were aged from 11-16 weeks. In all experiments the mice were age-matched. The mice were kept in the animal facility at the University of Göteborg, under standard conditions of light and temperature and fed standard laboratory chow and water ad libitum.
# Rat type II collagen (CII) from a chondrosarcoma was prepared by pepsin digestion and purification as described previously (9). The preparation of CII was dissolved at a concentration of 2 mg/ml in 0.1M acetic acid and stored at 4° C. Arthritis was induced by intradermal injection at the base of the tail with 50 μl of 100 μg CII emulsified with an equal volume of complete Freuid/s adjuvant (CFA; containing Mycobacterium butyricum, Difco, Detroit, Mich.). Mice were boosted with the same volume and concentrations of CII emulsified in incomplete Freund's adjuvant (IFA; Difco) 21 days after the first immunization.
# Mice were primed and booster-immunized with CII. They were divided into three groups. […] The third group of mice were controls (n—17), receiving treatment with PBS. Prior to the start of the experiment, six mice in each group were bled for hematological analyses.
# At regular time points the mice were examined concerning development of arthritis. Arthritis was defined as visible joint erythema and/or swelling of at least one joint. To evaluate the intensity of arthritis, a clinical scoring system of 0 to 3 points for each limb was used (1 point, mild swelling and/or erythema; 2 points, moderate swelling and erythema; 3 points, marked swelling and erythema). The arthritic index was constructed by adding the scores from all four limbs for each animal (11).
# peripheral leukocytes = assay: Hematological analyses in CII immunized mice; format: in vivo, B10.QxDBA/1 female mice
# Experimental: Mice were bled from the tail into heparinized tubes at different time-points. The leukocytes were counted in a hemacytometer (Toa Medical Electronics, Kobe, Japan). Fifty microliters of the heparinized blood was analyzed in a FACScan cytometer (Becton Dickinson, San Jose, Calif.) to determine the percentages of lymphocytes, granulocytes, and monocytes. The absolute numbers of different leukocyte subsets were then calculated from the total leukocyte counts.
# MIP-1α = MIP-1α release by IC-21 macrophage cell line; format: cell-based, murine
# Experimental: as §1, §2
# IL-1α = assay: IL-1 release by IC-21 macrophage cell line; format: cell-based, murine
# spleen mononuclear cells = format: cell-based, NMRI mice; conditions: spleen cells from naive mice, etoposide 1, 10, 100 μM; FIG. 2
# [3] = Etoposide-pretreated, Day-2 (prior to experiment, baseline)
# [4] = Etoposide-treated (from day 40), Day 61
# [5] = Etoposide-treated (from day 40), Day-2 (baseline)
compound,measurement,setting,value
COc1cc([C@@H]2c3cc4c(cc3[C@@H](O[C@@H]3O[C@@H]5CO[C@@H](C)O[C@H]5[C@H](O)[C@H]3O)[C@H]3COC(=O)[C@H]23)OCO4)cc(OC)c1O [Etoposide],"Foot-pad swelling, olive oil induced inflammation",[1],128±131 ×10^−3 cm
same,RANTES release,RANTES,upregulated
same,Arthritic score of diseased mice,"[2]; Etoposide pretreated, Day 46",0
same,Arthritic score of diseased mice,"[2]; Etoposide pretreated, Day 53",0
same,Arthritic score of diseased mice,"[2]; Etoposide pretreated, Day 61",0
same,Arthritic score of diseased mice,"[2]; Etoposide treated (from day 40), Day 46, mean ± SEM",2.4 ± 0.2 (n = 5)
same,Arthritic score of diseased mice,"[2]; Etoposide treated (from day 40), Day 53, mean ± SEM",5.4 ± 1.3 (n = 5)
same,Arthritic score of diseased mice,"[2]; Etoposide treated (from day 40), Day 61, mean ± SEM",5.6 ± 1.3 (n = 5)
same,Mice with clinical signs of arthritis,"[2]; Etoposide-pretreated: 12.5 mg/kg from two days prior to CII immunization, then 4 days weekly, almost nine weeks",none of 19
same,Mice exhibiting arthritis at the end of the experiment,"[2]; Etoposide-treated: 12.5 mg/kg 4 days per week from 40 days after immunization, 5 of 17, controls 53%",29%
same,Changes in weight,"[2]; between or within the groups (pretreated, treated, controls)",No significant changes in weight
same,Reduction of frequency of disease,[2]; mice treated with etoposide at the onset of clinical arthritis,50%
same,Granulocytes,"peripheral leukocytes; Etoposide-pretreated, Day 61",698 ± 341^b × 10^4/ml
same,Lymphocytes,"peripheral leukocytes; Etoposide-pretreated, Day 61",7.1 ± 3.4 × 10^6/ml
same,Monocytes,"peripheral leukocytes; Etoposide-pretreated, Day 61",67 ± 20 × 10^4/ml
same,Granulocytes,peripheral leukocytes; [3],71 ± 13 × 10^4/ml
same,Lymphocytes,peripheral leukocytes; [3],4.7 ± 0.3 × 10^6/ml
same,Monocytes,peripheral leukocytes; [3],18 ± 4 × 10^4/ml
same,Granulocytes,peripheral leukocytes; [4],991 ± 326^b × 10^4/ml
same,Lymphocytes,peripheral leukocytes; [4],14.3 ± 3.3^b × 10^6/ml
same,Monocytes,peripheral leukocytes; [4],92 ± 24^a × 10^4/ml
same,Granulocytes,peripheral leukocytes; [5],87 ± 20 × 10^4/ml
same,Lymphocytes,peripheral leukocytes; [5],5.9 ± 0.8 × 10^6/ml
same,Monocytes,peripheral leukocytes; [5],19 ± 3 × 10^4/ml
same,Levels of MIP-1α in supernatants,"MIP-1α; etoposide 0.01 μM 24 h, then IFN-γ 0 u/ml 24 h",5700 pg/mL
same,Levels of MIP-1α in supernatants,"MIP-1α; etoposide 0.01 μM 24 h, then IFN-γ 10 u/ml 24 h",4200 pg/mL
same,Levels of MIP-1α in supernatants,"MIP-1α; etoposide 0.01 μM 24 h, then IFN-γ 50 u/ml 24 h",1075 pg/mL
same,Levels of MIP-1α in supernatants,"MIP-1α; etoposide 0.01 μM 24 h, then IFN-γ 100 u/ml 24 h",800 pg/mL
same,Levels of MIP-1α in supernatants,"MIP-1α; etoposide 0.1 μM 24 h, then IFN-γ 0 u/ml 24 h",3400 pg/mL
same,Levels of MIP-1α in supernatants,"MIP-1α; etoposide 0.1 μM 24 h, then IFN-γ 10 u/ml 24 h",1950 pg/mL
same,Levels of MIP-1α in supernatants,"MIP-1α; etoposide 0.1 μM 24 h, then IFN-γ 50 u/ml 24 h",900 pg/mL
same,Levels of MIP-1α in supernatants,"MIP-1α; etoposide 0.1 μM 24 h, then IFN-γ 100 u/ml 24 h",488 pg/mL
same,Levels of IL-1α,IL-1α,No major differences
same,Proliferative responses to Con A and TSST-1,spleen mononuclear cells,significantly decreased upon increasing concentrations
